Reference: patent publication US20110097274A1, “Carbon-11 and fluorine-18 labeled radioligands for positron emission tomography (PET) imaging for the brain serotonin transporters” (priority 2002, published 2011)
Several values for one entry are separate records, joined by “and”; a condition that tells them apart may be missing. Equal entries are not always repeated. Where two headings read alike, the source gives them in different places.

What was measured:
[1] = test system: SERT; experiment: Baboon PET imaging: brain uptake, kinetic analysis and SERT parameters; type: in vivo; conditions: for Kp: male, baboon, brain, intravenous
Description: (§1) PET imaging protocol: PET experiments (n=20) were performed at Columbia University. Two adult male baboons (baboon A and B) were studied twice with each of the 5 radioligands (4 experiments per radioligand). All experiments took place within a 9-month period. Baboons A and B were 31 kg and 21 kg in weight at the beginning of the experimental period and 28 and 22 kg at the end, respectively. Test and retest experiments with the same radioligand were obtained on different days, with an average interval of 117±53 days.
(§2) Experiments were performed according to protocols approved by the Columbia-Presbyterian Medical Center Institutional Animal Care and Use Committee. Fasted animals were immobilized with ketamine (10 mg/kg i.m.), and anesthetized with 1.8% isoflurane via an endotracheal tube. Vital signs were monitored every 10 minutes and the temperature was kept constant at 37° C. with heated water blankets. An i.v. perfusion line was used for hydration and injection of radioligands and nonradioactive drugs. A catheter was inserted in a femoral artery for arterial blood sampling. Head was positioned at the center of the field of view as defined by imbedded laser lines. PET imaging was performed with the ECAT EXACT HR+PET scanner (Siemens/CTI, Knoxville, Tenn.). In 3D mode, this camera provides an in-plane resolution of 4.3 mm, 4.5 mm, 5.4 mm and 8.0 mm full width at half maximum (FWHM) at a distance of 0, 1, 10 and 20 cm from the center of the field of view, respectively (Brix et al., 1997). A 15 minute transmission scan was obtained prior to radioligand injection for attenuation correction. Activity was injected i.v. over 30 seconds. […] Emission data was collected in the 3D mode for 91 minutes as 21 successive frames of increasing duration (6*10 seconds, 2*1 minutes, 4*2 minutes, 2*5 minutes, and 7*10 minutes).
(§3) Image analysis: A Magnetic Resonance Image (MRI) of each baboon's brain was obtained for the purpose of identifying the regions of interest (ROI) (T1-weighted axial MRI sequence, acquired parallel to the anterior-posterior commissure, TR 34 msec, TE 5 msec, flip angle of 45 degrees, slice thickness is 1.5 mm, zero gap, matrix 1.5 mm×1 mm×1 mm voxels). The following regions were drawn on the MR images: cerebellum, midbrain, thalamus, striatum, hippocampus, temporal cortex, cingulate cortex and occipital cortex.
(§4) PET emission data were attenuation-corrected using the transmission scan, and frames were reconstructed using a Shepp filter (cutoff 0.5 cycles/projection rays). Reconstructed image files were then processed using the image analysis software MEDx (Sensor Systems, Inc., Sterling, Va.). An image was created by summing all the frames, and this summed image was used to define the registration parameters with the MR image, using between-modality automated image registration (AIR) algorithm (Woods et al., 1993). Registration parameters were then applied to the individual frames for registration to the MR data set. Regional boundaries were transferred to the individual registered PET frames, and time-activity curves were measured and decay-corrected. Right and left regions were averaged. For a given animal, the same regions were used for all radioligands.
(§5) Brain uptake: Total brain uptake was expressed as percentage of the injected dose per gram of tissue (% ID g^−1) in a region encompassing the entire brain. Regional peak time was defined as the mid-time of the frame associated with the highest activity value. To estimate the degree of wash-out from the brain captured during the scan interval (91 minutes), the decrease in activity from the peak frame to the last frame was calculated and expressed in percentage of the peak activity.
(§6) Kinetic analysis: Regional total distribution volumes (VT, mL g^−1) were derived with kinetic analysis of the regional time-activity curves, using the arterial plasma concentrations as input function. […]

[2] = as above; type: in vivo; conditions: male, baboon, intravenous, baboons
Description: as §1, §2, §3, §4, §5, §6

[3] = BP = VT ROI − VT CER, baboons, mean ± SD of four experiments
[4] = Mean ± SD of four experiments in two baboons
[5] = baboon A, experiments of FIGS. 5-9 (FIG. 10)
[6] = baboons, mean ± SD of four experiments
[7] = last scan 90 minutes, baboons, mean ± SD of four experiments
[8] = one-tissue compartment model, baboons, mean ± SD of four experiments

## CN(C)Cc1ccccc1Sc1ccc(I)cc1N [[^11C]ADAM]
[1]; [3]
  Binding potential Cingulate Cortex: 8.8 ± 3.9 mL/g
  Binding potential Hippocampus: 12.6 ± 3.3 mL/g
  Binding potential Midbrain: 28.5 ± 6.7 mL/g
  Binding potential Occipital Cortex: 4.9 ± 3.8 mL/g
  Binding potential Striatum: 17.8 ± 3.7 mL/g
  Binding potential Temporal Cortex: 10.1 ± 5.0 mL/g
  Binding potential Thalamus: 31.4 ± 6.1 mL/g
[1]; Baboon A, single experiment
  Equilibrium specific to non-specific partition coefficient (V3″) Cingulate Cortex: 0.28 and 0.43
  Equilibrium specific to non-specific partition coefficient (V3″) Hippocampus: 0.41 and 0.49
  Equilibrium specific to non-specific partition coefficient (V3″) Midbrain: 1.04 and 0.81
  Equilibrium specific to non-specific partition coefficient (V3″) Striatum: 0.65 and 0.59
  Equilibrium specific to non-specific partition coefficient (V3″) Temporal Cortex: 0.41 and 0.47
  Equilibrium specific to non-specific partition coefficient (V3″) Thalamus: 1.18 and 0.92
[1]; Baboon B, single experiment
  Equilibrium specific to non-specific partition coefficient (V3″) Cingulate Cortex: 0.23 and 0.26
  Equilibrium specific to non-specific partition coefficient (V3″) Hippocampus: 0.38 and 0.47
  Equilibrium specific to non-specific partition coefficient (V3″) Midbrain: 0.91 and 1.25
  Equilibrium specific to non-specific partition coefficient (V3″) Occipital Cortex: 0.07 and 0.12
  Equilibrium specific to non-specific partition coefficient (V3″) Striatum: 0.56 and 0.68
  Equilibrium specific to non-specific partition coefficient (V3″) Temporal Cortex: 0.18 and 0.30
  Equilibrium specific to non-specific partition coefficient (V3″) Thalamus: 1.05 and 1.26
[1]; [4]
  Equilibrium specific to non-specific partition coefficient (V3″) Cingulate Cortex: 0.30 ± 0.09
  Equilibrium specific to non-specific partition coefficient (V3″) Hippocampus: 0.44 ± 0.05
  Equilibrium specific to non-specific partition coefficient (V3″) Midbrain: 1.00 ± 0.19
  Equilibrium specific to non-specific partition coefficient (V3″) Occipital Cortex: 0.16 ± 0.11
  Equilibrium specific to non-specific partition coefficient (V3″) Striatum: 0.62 ± 0.06
  Equilibrium specific to non-specific partition coefficient (V3″) Temporal Cortex: 0.34 ± 0.13
  Equilibrium specific to non-specific partition coefficient (V3″) Thalamus: 1.10 ± 0.15
[1]; [5]
  Thalamus to cerebellum ratio equal to true equilibrium ratio (V3″+1): 1.92
  Time at which measured thalamus to cerebellum ratio equals the true equilibrium ratio (estimate of peak specific binding): 55 min
[1]; baboons
  K1, average of all regions and all animals: 1.09 ± 0.35 mL/g/min
  k2, average of all regions and all animals: 0.028 ± 0.011 min⁻¹
[1]; baboons, combining all regions
  V3″ expressed in percentage of [^11C]McN 5652 V3″: 128±24%
[1]; baboons, mean of all regions
  Mean regional peak uptake time: 37 ± 18 min
  Mean regional wash-out (% decrease between peak time and last scan): 25±14%
[1]; [6]
  Cingulate Cortex to cerebellum activity ratio at 90 minutes: 1.29 ± 0.07
  Hippocampus to cerebellum activity ratio at 90 minutes: 1.45 ± 0.06
  Midbrain to cerebellum activity ratio at 90 minutes: 1.96 ± 0.18
  Occipital Cortex to cerebellum activity ratio at 90 minutes: 1.14 ± 0.09
  Regional uptake peak time Cerebellum: 14 ± 5 min
  Regional uptake peak time Cingulate Cortex: 32 ± 17 min
  Regional uptake peak time Hippocampus: 46 ± 8 min
  Regional uptake peak time Midbrain: 49 ± 22 min
  Regional uptake peak time Occipital Cortex: 30 ± 18 min
  Regional uptake peak time Striatum: 39 ± 15 min
  Regional uptake peak time Temporal Cortex: 39 ± 13 min
  Regional uptake peak time Thalamus: 51 ± 24 min
  Striatum to cerebellum activity ratio at 90 minutes: 1.65 ± 0.13
  Temporal Cortex to cerebellum activity ratio at 90 minutes: 1.33 ± 0.08
  Thalamus to cerebellum activity ratio at 90 minutes: 2.05 ± 0.23
[1]; baboons, region encompassing the entire brain
  Total brain uptake at 45 min: 0.017±0.001 % ID g^−1
[1]; [7]
  Regional activity wash-out: % decrease from peak to last scan, Cerebellum: 45 ± 8%
  Regional activity wash-out: % decrease from peak to last scan, Cingulate Cortex: 34 ± 7%
  Regional activity wash-out: % decrease from peak to last scan, Hippocampus: 15 ± 6%
  Regional activity wash-out: % decrease from peak to last scan, Midbrain: 10 ± 7%
  Regional activity wash-out: % decrease from peak to last scan, Occipital Cortex: 36 ± 10%
  Regional activity wash-out: % decrease from peak to last scan, Striatum: 23 ± 6%
  Regional activity wash-out: % decrease from peak to last scan, Temporal Cortex: 25 ± 8%
  Regional activity wash-out: % decrease from peak to last scan, Thalamus: 12 ± 5%
[1]; cingulate cortex, one-tissue compartment model, baboons, mean ± SD of four experiments, read-out: VT Cingulate Cortex
  Kp: 37.3 ± 8.5
[1]; hippocampus, one-tissue compartment model, baboons, mean ± SD of four experiments, read-out: VT Hippocampus
  Kp: 41.1 ± 8
[1]; midbrain, one-tissue compartment model, baboons, mean ± SD of four experiments, read-out: VT Midbrain
  Kp: 57 ± 10.2
[1]; occipital cortex, one-tissue compartment model, baboons, mean ± SD of four experiments, read-out: VT Occipital Cortex
  Kp: 33.5 ± 8.3
[1]; striatum, one-tissue compartment model, baboons, mean ± SD of four experiments, read-out: VT Striatum
  Kp: 46.3 ± 8.4
[1]; temporal cortex, one-tissue compartment model, baboons, mean ± SD of four experiments, read-out: VT Temporal Cortex
  Kp: 38.6 ± 9.7
[1]; thalamus, one-tissue compartment model, baboons, mean ± SD of four experiments, read-out: VT Thalamus
  Kp: 59.9 ± 10.1
[1]; [8]
  K1 Cerebellum: 1.23 ± 0.44 mL/g/min
  K1 Cingulate Cortex: 1.20 ± 0.38 mL/g/min
  K1 Hippocampus: 0.85 ± 0.32 mL/g/min
  K1 Midbrain: 1.00 ± 0.35 mL/g/min
  K1 Occipital Cortex: 1.12 ± 0.33 mL/g/min
  K1 Striatum: 1.15 ± 0.45 mL/g/min
  K1 Temporal Cortex: 1.02 ± 0.37 mL/g/min
  K1 Thalamus: 1.14 ± 0.32 mL/g/min
  K2 Cerebellum: 0.043 ± 0.012 min⁻¹
  K2 Cingulate Cortex: 0.033 ± 0.009 min⁻¹
  K2 Hippocampus: 0.021 ± 0.006 min⁻¹
  K2 Midbrain: 0.018 ± 0.006 min⁻¹
  K2 Occipital Cortex: 0.034 ± 0.010 min⁻¹
  K2 Striatum: 0.025 ± 0.008 min⁻¹
  K2 Temporal Cortex: 0.027 ± 0.009 min⁻¹
  K2 Thalamus: 0.020 ± 0.006 min⁻¹
  VT Cerebellum (VT CER, nonspecific distribution volume): 28.5 ± 4.8 mL/g
[2]; brain regions (average of all regions), read-out: VT, average of all regions and all animals
  Kp: 42.8 ± 12.9
[2]; cerebellum, one-tissue compartment model, mean ± SD of four experiments, read-out: VT Cerebellum (VT CER, nonspecific distribution volume)
  Kp: 28.5 ± 4.8
